Test results: the METLIN SMRT retention time set (Domingo-Almenara et al. 2019)

Assay: gradient 5% acetonitrile 3 min, to 50% in 2 min, to 85% in 15 min, held 3 min, 100 µL/min
Details: column: Zorbax Extend-C18 2.1 x 50 mm; eluents: water / acetonitrile, 0.1% formic acid
Procedure, shortened: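 Standards, all pure, were combined into mixtures of ~100 molecules and run at 100 μL/min on a Zorbax Extend-C18 column (2.1 × 50 mm, 1.8 μm) with water and acetonitrile, each containing 0.1% formic acid. A coupled quadrupole time-of-flight mass spectrometer operated in positive and negative ionization mode. Retention time values come from computationally picked adduct peaks, each inspected manually.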

Row | RP-LC retention time | SMILES
1 | 790 s | CN1C(=O)c2cccnc2Sc2cc(NC(=O)c3cccc(F)c3)ccc21
2 | 897 s | O=C(NCc1ccc(F)cc1)N1CCCC1c1nc(-c2ccc(F)cc2F)no1 (stereo not given)
3 | 575 s | CN1C(=O)[C@H]2CN(Cc3cn[nH]c3-c3ccc(F)cc3)C[C@H]2C1=O
4 | 752 s | CCOc1ccc(NC(=O)N2CCN(c3nc4cccnc4s3)CC2)cc1
5 | 814 s | CCc1noc(NC(C)=O)c1-c1ccc(C)c(S(=O)(=O)NCc2ccc(F)cc2)c1
6 | 989 s | Cc1ccc(Cl)cc1N1CCN(C(=O)CCN2C(=O)C3C4C=CC(C4)C3C2=O)CC1 (stereo not given)
7 | 934 s | COc1ccc(Cl)cc1NC(=O)CN1C(=O)C2CCCCN2c2ccc(C(=O)N3CCCC3)cc21 (stereo not given)
8 | 657 s | Cc1ccc(-c2cc(C(=O)N3CCN(c4ccc(N5CCOCC5)nn4)CC3)[nH]n2)cc1C
9 | 732 s | COc1ccc(CNC(=O)C2CCCN(c3ncnc4c3nc3n4CCCCC3)C2)cc1 (stereo not given)
10 | 713 s | Cc1ccc(-c2nnc(-c3nc(NCCN4CCCC4)c4ccccc4n3)o2)cc1
11 | 727 s | COc1ccc(NC(=O)N2CCC(c3nc(C(=O)N4CCCC4)c(C)o3)CC2)cc1
12 | 871 s | CSc1ncccc1C(=O)N1CCc2cc(-c3ccno3)ccc21
13 | 780 s | COc1ccc(-c2cc(C(F)(F)F)n3ncc(C(=O)NCc4cn(C)nc4C)c3n2)cc1OC
14 | 748 s | CC(=O)N1CCc2cc(N3CC(C(=O)NCc4ccccc4C(F)(F)F)CC3=O)ccc21 (stereo not given)

The remaining lines, values behind:

Row | SMILES | RP-LC retention time
15 | Fc1ccccc1-c1nc2ccn(Cc3ccc(-c4ccc(C(F)(F)F)cc4C(F)(F)F)nn3)cc-2n1 | 849 s
16 | CCOC(=O)c1c(C)oc2ncnc(N3CCN(c4ccccn4)CC3)c12 | 628 s
17 | Nc1nc(S(=O)(=O)Cc2ccccc2)ns1 | 637 s
18 | Cc1ccc(Cl)cc1N(C)C(=O)C1CCCN(c2ncnc3c2nc2n3CCCCC2)C1 (stereo not given) | 918 s
19 | O=[N+]([O-])c1ccc(Sc2ncccn2)c([N+](=O)[O-])c1 | 900 s
20 | COC(=O)c1cn(Cc2cc(C)ccc2C)nc1S(=O)(=O)N(C)c1ccc(C)cc1 | 1060 s
21 | COc1ccc(C(=O)Nc2nnc(SCc3nnc(-c4ccccc4C)o3)s2)cc1 | 966 s
22 | Cc1cc(C)n(CCC(=O)NCC23CCCC=C2NC(=O)CC3)n1 (stereo not given) | 621 s
23 | O=C(NCc1ccc2c(c1)OCO2)C1CCN(c2cnc(N3CCSCC3)nc2)CC1 | 763 s
24 | CCCNC(=O)N(C1CCOCC1)C1CCN(C(=O)c2cnccn2)CC1 | 611 s
25 | COC1=CC(=O)C[C@@H](C)C12Oc1c(Cl)c(OC)cc(OC)c1C2=O (stereo not given in full) | 812 s
26 | CCc1ccc(NC(=O)Cn2nc3c(Oc4cc(C)cc(C)c4)nccn3c2=O)cc1 | 943 s
27 | CCC(C)NS(=O)(=O)c1cc(-c2cc(C(F)(F)F)on2)sc1C (stereo not given) | 1140 s
28 | O=C(NCc1nc2ccccc2n1CC(=O)N1CCCCC1)c1ccco1 | 614 s
29 | Cc1cccc(NS(=O)(=O)c2c(C)sc(C)c2-c2n[nH]c(C)c2C)c1 | 1040 s
30 | O=C(NCCc1nc2cccnc2n1-c1ccccc1)c1ccccc1 | 708 s
31 | Cc1ccc(N2CCN(C(=O)c3cn(-c4cc(N5CCCCC5)ncn4)cn3)CC2)cc1 | 994 s
32 | COc1ccccc1NC(=O)Cn1cnc2nc(N3CCC(C(=O)NC4CC4)CC3)sc2c1=O | 656 s
33 | Cc1ccc(N(C)S(=O)(=O)c2ccccc2-c2nc(-c3ccccc3)no2)cc1 | 1200 s
34 | CC1=NS(=O)(=O)N(C)C=C1C(=O)OCc1cc(F)cc(F)c1 | 934 s
35 | COc1ccccc1N1CCN(c2cc(SCC(=O)Nc3ccc4c(c3)OCO4)ncn2)CC1 | 900 s
